Data reported in patent EP4682145A1, “BENZOHETEROCYCLIC COMPOUND, AND PREPARATION METHOD THEREFOR AND USE THEREOF” (Cascade Pharmaceuticals, Inc., priority 2023, dated 2024).

Tests used:
human FFAR1 (GPR40) = target: T1, human FFAR1 (GPR40) (Homo sapiens, UniProt O14842); assay: NFAT-RE-based reporter gene activity assay (Dual-Glo luciferase) for GPR40 agonistic activity in co-transfected HEK293T cells; assay type: cell-based; conditions: 4-hour treatment; for Efficacy (%): class symbols
T1 construct: Flag; expressed in transfected cells; host or cells: HEK293T
T1 sequence (O14842 whole entry): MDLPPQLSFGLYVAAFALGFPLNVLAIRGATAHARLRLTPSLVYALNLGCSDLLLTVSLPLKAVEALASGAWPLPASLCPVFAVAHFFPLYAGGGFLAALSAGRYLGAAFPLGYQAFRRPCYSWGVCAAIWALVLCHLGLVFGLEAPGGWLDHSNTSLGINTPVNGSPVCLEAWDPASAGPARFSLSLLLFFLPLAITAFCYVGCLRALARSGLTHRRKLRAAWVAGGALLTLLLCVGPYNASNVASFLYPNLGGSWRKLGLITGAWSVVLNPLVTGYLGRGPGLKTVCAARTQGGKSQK
Procedure, shortened: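 HEK293T cells co-transfected with human FFAR1, NFAT-RE firefly luciferase and TK-Renilla plasmids; 24 h later treated 4 h with 10 half-log compound dilutions from 1 µM. Firefly/Renilla ratio normalised to DMSO; EC50 from four-parameter fit.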

normal C57BL6/J mice = assay: Oral glucose tolerance test (OGTT) in normal C57BL6/J mice; assay type: in vivo; conditions: 1 mg/kg gavage, single dose; for AUC 0-120 minutes: blood glucose AUC
Method: Eighteen normal male C57BL6/J mice (8-9 weeks old) were selected and randomly divided into 3 groups based on body weight and blood glucose levels, with 6 mice in each group. On the day of the OGTT, fasting was initiated at 8:30 AM. At 11:30 AM, drug interventions were administered via gavage (vehicle control, compound 14, 1 mg/kg, and compound 169, 1 mg/kg). At 1:30 PM, glucose (2 g/kg) was administered via gavage, while the blank control group received the vehicle control orally (2% DMSO + 15% solutol + 83% DDW solution) at a dosing volume of 10 mL/kg. Blood glucose measurements during the OGTT were taken at the following time points: 0, 15, 30, 60, 90, and 120 minutes after glucose administration.
Blood glucose levels were measured at 0, 15, 30, 60, and 120 minutes after glucose administration. The area under the curve (AUC) for blood glucose over 120 minutes was calculated. [formula]
Note: BG0, BG15, BG30, BG60, BG90, and BG120 represent the blood glucose levels at 0, 15, 30, 60, 90, and 120 minutes after glucose administration, respectively.
Data were expressed as mean ± standard deviation. One-way ANOVA was employed for statistical analysis, with p < 0.05 considered statistically significant.

[1] = Tissue distribution evaluation in ICR mice; assay type: in vivo; conditions: oral gavage 5 mg/kg, 1 hour after administration
Method: Experimental protocol: The tissue distribution characteristics of the compounds were evaluated in mice. 2 male ICR mice with similar body weights were selected, and the compound was administered via oral gavage at a dose of 5 mg/kg. The animals were sacrificed at 1 hour, and blood, liver, and heart were collected. After sample processing, the concentration of the compounds in each matrix was analyzed by LCMS/MS, and the average values of each group were calculated to evaluate the tissue/plasma ratio of the compounds.
Experimental animals: 2 healthy male ICR mice were purchased from Charles River.
Preparation of formulations: A certain amount of the compound was weighed and added to 2% DMSO + 15% Solutol + 83% distilled water to form a clear solution.
Dosage: ICR mice were fasted overnight and administered the compound via oral gavage at a dose of 5 mg/kg. The volume of oral gavage administration was 10 mL/kg. Uniform feeding was conducted 2 hours after administration.
Sample collection: Animals were sacrificed 1 hour after administration, and blood, liver, and heart tissues were collected. The blood was placed into commercially available tubes containing K2-EDTA. The blood samples were then centrifuged at 4°C and 4600 rpm for 5 minutes to obtain plasma samples. All plasma and tissue samples were rapidly frozen on dry ice and maintained at -70°C until LCMS/MS analysis was performed.
Sample preparation: 50 µL of the plasma sample was aspirated, precipitated with methanol, thoroughly mixed, and centrifuged at 4°C and 14000 rpm for 5 minutes. Then, 75 µL of the supernatant was mixed with 75 µL of methanol for LCMS/MS analysis. Tissue samples were homogenized using methanol. After homogenization, the mixture was centrifuged at 14,000 rpm for 5 minutes at 4°C. Subsequently, 75 µL of the supernatant was mixed with 75 µL of methanol for LCMS/MS analysis.

[2] = Pharmacokinetic evaluation in ICR mice (intravenous and gavage); assay type: in vivo
Method: The bioavailability and pharmacokinetic behavior of the compounds were evaluated in mice. 6 male ICR mice with similar body weights were selected, among which 3 mice were administered a single gavage dose of 10 mg/kg, and the other 3 mice were intravenously administered a single dose of 5 mg/kg. Blood samples were collected at 5 minutes (intravenous administration), 15 minutes, 30 minutes, 1 hour, 2 hours, 4 hours, and 7 hours after administration. The plasma samples were analyzed for concentration by LCMS/MS, and the pharmacokinetic parameters of the compounds were analyzed using the PKSolver free tool and non-compartmental analysis (NCA) software.
Experimental animals: Each compound test group included 6 healthy male ICR mice, weighing 18-25 g, purchased from Charles River, which were randomly divided into 2 groups with 3 mice each.
Preparation of formulations: A certain amount of the compound was weighed and added to 2% DMSO + 15% Solutol + 83% physiological saline to form a clear solution.
Dosage: ICR mice were fasted overnight and administered the compound at a dose of 10 mg/kg via gavage or 5 mg/kg via intravenous injection. The dosing volumes for gavage and intravenous administration were 10 mL/kg and 5 mL/kg, respectively. Uniform feeding was conducted 2 hours after administration.
Sample collection: Approximately 30 µL of blood was collected from the great saphenous vein at 5 minutes (intravenous administration), 15 minutes, 30 minutes, 1 hour, 2 hours, 4 hours, and 7 hours after administration. The blood was placed into commercially available tubes containing K2-EDTA. The blood samples were then centrifuged at 4°C and 4600 rpm for 5 minutes to obtain plasma samples. All plasma samples were rapidly frozen on dry ice and maintained at -70°C until LCMS/MS analysis was performed.
Sample preparation: 10 µL of plasma sample was aspirated and precipitated with a methanol solution containing 50 nmol/L of α-naphthoflavone (internal standard). The mixture was thoroughly mixed and centrifuged at 4°C and 14000 rpm for 5 minutes. Then, 75 µL of the supernatant was mixed with 75 µL of methanol for LCMS/MS analysis.

[3] = system: normal male C57BL6/J mice; assay: In vivo hypoglycemia risk assay in fasted normal C57BL6/J mice; conditions: mouse, in vivo, po, 10 mg/kg
Method: The blank control group was orally administered with the vehicle control (2% DMO + 15% solutol + 83% DDW solution), with a dosing volume of 10 mL/kg. […] […] Data were expressed as mean ± standard deviation. One-way ANOVA was employed for statistical analysis, with p < 0.05 considered statistically significant.

[4] = Intravenous Administration (5 mg/kg)
[5] = mouse, plasma, po, Gavage Administration (10 mg/kg)

COc1cccc(N2CCC(c3oc4cc([C@@H](CC(=O)O)C5CC5)ccc4c3-c3ccc(C(C)(C)C)cc3)CC2)c1 [Compound 14]
EC50 (human FFAR1 (GPR40)): 10 to 100 nM
Efficacy (%) (human FFAR1 (GPR40)): ††† (Efficacy (%) > 150)
Blood Glucose (normal C57BL6/J mice; 0 minutes after glucose (2 g/kg)): 7.58 ± 0.59 mmol/L
Blood Glucose (normal C57BL6/J mice; 15 minutes after glucose (2 g/kg)): 11.08 ± 2.04 mmol/L
Blood Glucose (normal C57BL6/J mice; 30 minutes after glucose (2 g/kg)): 9.17 ± 1.37 mmol/L
Blood Glucose (normal C57BL6/J mice; 60 minutes after glucose (2 g/kg)): 7.6 ± 1.34 mmol/L
Blood Glucose (normal C57BL6/J mice; 90 minutes after glucose (2 g/kg)): 6.52 ± 2 mmol/L
Blood Glucose (normal C57BL6/J mice; 120 minutes after glucose (2 g/kg)): 5.87 ± 1.13 mmol/L
AUC 0-120 minutes (normal C57BL6/J mice; 1 mg/kg): 941±62.00
AUC 0-120 minutes (normal C57BL6/J mice; listed as compound 14, 1 mg/kg): significantly reduced

COc1ccc(F)c(N2CCC(c3oc4cc(C(CC(=O)O)C5CC5)ccc4c3-c3cccc(C(C)(C)C)c3)CC2)c1 (stereo not drawn) [Compound 165]
EC50 (human FFAR1 (GPR40)): 100 to 500 nM
Efficacy (%) (human FFAR1 (GPR40)): ††† (Efficacy (%) > 150)
Plasma Concentration (ng/mL) or Tissue Concentration (ng/g): Blood [1]: 842 ng/mL
Plasma Concentration (ng/mL) or Tissue Concentration (ng/g): Heart [1]: 418 ng/g
Plasma Concentration (ng/mL) or Tissue Concentration (ng/g): Liver [1]: 1548 ng/g
Plasma Concentration (ng/mL) or Tissue Concentration (ng/g): Plasma [1]: 1290 ng/mL

COc1ccc(F)c(N2CCC(c3oc4cc(C(CC(=O)O)C5CC5)ccc4c3-c3ccc(C(C)(C)C)cc3)CC2)c1 (stereo not drawn) [Compound 168]
EC50 (human FFAR1 (GPR40)): 100 to 500 nM
Efficacy (%) (human FFAR1 (GPR40)): ††† (Efficacy (%) > 150)
CL_obs [2, 4]: 2.1 mL/min/kg
Vss_obs [2, 4]: 0.494 L/kg
half-life ([2]; mouse, plasma, Intravenous Administration (5 mg/kg)): 3.9 h
Cmax [2, 5]: 3470 ng/mL
Tmax [2, 5]: 3 h
AUC(0-t) at 7 h ([2]; mouse, plasma, po, Gavage Administration (10 mg/kg), read-out: AUC0-7 h): 15400 ng·h/mL
bioavailability ([2]; mouse, plasma, po, gavage 10 mg/kg versus intravenous 5 mg/kg): 24%
Plasma Concentration (ng/mL) or Tissue Concentration (ng/g): Blood [1]: 936 ng/mL
Plasma Concentration (ng/mL) or Tissue Concentration (ng/g): Heart [1]: 485 ng/g
Plasma Concentration (ng/mL) or Tissue Concentration (ng/g): Liver [1]: 1923 ng/g
Plasma Concentration (ng/mL) or Tissue Concentration (ng/g): Plasma [1]: 1550 ng/mL

COc1ccc(Cl)cc1C(=O)NCCc1ccc(S(=O)(=O)NC(=O)NC2CCCCC2)cc1 [Glibenclamide, reference compound]
AUC0-120 minutes (mmol*min) [3]: 492±50.30** mmol*min
